Test results as given in patent US10738028B2, “Spiro three-membered ring, spiro five-membered ring peptide deformylase inhibitor and use thereof in antibacteria and anti-tumor” (priority 2016, dated 2020).

How the values were obtained:
Assay type in all cases: cell-based
[1] = system: MGC-803 gastric cancer cell line; experiment: CCK-8 proliferation inhibition; conditions: Homo sapiens, MGC-803, 72 h, concentration of 30 μM
Procedure, shortened: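 Proliferation was measured with 1:10 diluted CCK-8 after a 72-hour incubation with the inhibitors at various final concentrations, using 1‰ DMSO as the control. Cells were plated at 2000 per well. Culture media contained 10% newborn bovine serum: 1640 for Jurkat and MGC-803, F12 for PC3, DMEM high glucose for MCF-7.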

[2] = system: A549 lung cancer cell line; experiment: CCK-8 proliferation inhibition; conditions: Homo sapiens, A549, 72 h, concentration of 30 μM
Procedure, shortened: (§1)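 Plating at 2000 cells/well, then incubation overnight at 37° C. Next, a range of compound concentrations for 72 hours (control 1‰ DMSO). Finally, medium decanted and CCK-8 diluted 1:10 added.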

[3] = system: BEL-7402 liver cancer cell line; experiment: CCK-8 proliferation inhibition; conditions: concentration of 30 μM
Procedure, shortened: as §1

[4] = system: HCT-116 colorectal cancer cell line; experiment: CCK-8 proliferation inhibition; conditions: concentration of 30 μM, 72 hours, CCK-8
Procedure, shortened: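 Cells were plated overnight at 2000 cells/well, then compound in culture medium was added at a range of final concentrations. After 72 hours in a CO2 incubator, medium was replaced with 1:10 CCK-8 solution for the read-out.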

[5] = system: Enterococcus faecalis (EFA); experiment: MIC, two-fold agar dilution (CLSI), clinical isolates
Procedure, shortened: (§2)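 MIC values come from two-fold agar dilution run per CLSI antimicrobial susceptibility testing procedure.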

[6] = system: Escherichia coli (including ESBLs, non-ESBLs); experiment: as above
Procedure, shortened: as §2

[7] = system: Enterococcus faecium (EFM); experiment: as above
Procedure, shortened: as §2

[8] = system: methicillin-sensitive Staphylococcus epidermidis (MSSE); experiment: as above
Procedure, shortened: as §2

[9] = system: Moraxella catarrhalis (BCA); experiment: as above
Procedure, shortened: as §2

[10] = system: Streptococcus pneoumoniae (SPN); experiment: as above
Procedure, shortened: as §2

[11] = system: methicillin-resistant Staphylococcus epidermidis (MRSE); experiment: as above
Procedure, shortened: as §2

[12] = system: methicillin-sensitive Staphylococcus aureus (MSSA); experiment: as above
Procedure, shortened: as §2

[13] = system: methicillin-resistant Staphylococcus aureus (MRSA); experiment: as above
Procedure, shortened: as §2

CCCC[C@H](CC(=O)NO)C(=O)N1CC2(CC2)C[C@H]1C(=O)Nc1nc(C)cs1 [Example 51, (S)-5-((R)-2-(2-(hydroxyamino)-2-oxoethyl)hexanoyl)-N-(4-methylthiazol-2-yl)-5-spiro[2.4]heptane-6-carboxamide]
inhibition at 30 µM [1]: 40%
inhibition at 30 µM [2]: 44%
inhibition at 30 µM ([3]; Homo sapiens, Bel-7402, 72 h): > 50%
Inhibition of proliferation, Liver cancer BEL-7402 ([3]; 72 hours, 30 µM): 68%
inhibition at 30 µM ([4]; Homo sapiens, HCT-116, 72 h, read-out: HCT116 inhibition rate/%): > 50%
HCT116 inhibition rate/% ([4]; 30 µM): 65%
Anti-bacterial activity (MIC), strain EFA 15-1 ([5]; clinical isolate EFA 15-1): 8 µg/mL
Anti-bacterial activity (MIC), strain EFA 15-2 ([5]; clinical isolate EFA 15-2): 8 µg/mL
Anti-bacterial activity (MIC), strain EFA 15-3 ([5]; clinical isolate EFA 15-3): 2 µg/mL
Anti-bacterial activity (MIC), strain EFA 15-4 ([5]; clinical isolate EFA 15-4): 8 µg/mL
Anti-bacterial activity (MIC), strain EFA 15-5 ([5]; clinical isolate EFA 15-5): 8 µg/mL
Anti-bacterial activity (MIC), strain EFA 15-6 ([5]; clinical isolate EFA 15-6): 8 µg/mL
Anti-bacterial activity (MIC), strain EFA 15-9 ([5]; clinical isolate EFA 15-9): 8 µg/mL
Anti-bacterial activity (MIC), strain ECO+ 15-1 ([6]; clinical isolate ECO+ 15-1): 16 µg/mL
Anti-bacterial activity (MIC), strain ECO+ 15-2 ([6]; clinical isolate ECO+ 15-2): > 32 µg/mL
Anti-bacterial activity (MIC), strain ECO+ 15-3 ([6]; clinical isolate ECO+ 15-3): > 32 µg/mL
Anti-bacterial activity (MIC), strain ECO+ 15-4 ([6]; clinical isolate ECO+ 15-4): 32 µg/mL
Anti-bacterial activity (MIC), strain ECO− 15-1 ([6]; clinical isolate ECO− 15-1): > 32 µg/mL
Anti-bacterial activity (MIC), strain ECO− 15-2 ([6]; clinical isolate ECO− 15-2): > 32 µg/mL
Anti-bacterial activity (MIC), strain ECO− 15-3 ([6]; clinical isolate ECO− 15-3): > 32 µg/mL
Anti-bacterial activity (MIC), strain ECO− 15-4 ([6]; clinical isolate ECO− 15-4): > 32 µg/mL
Anti-bacterial activity (MIC), strain EFM 15-1 ([7]; clinical isolate EFM 15-1): 2 µg/mL
Anti-bacterial activity (MIC), strain EFM 15-2 ([7]; clinical isolate EFM 15-2): 2 µg/mL
Anti-bacterial activity (MIC), strain EFM 15-3 ([7]; clinical isolate EFM 15-3): 0.5 µg/mL
Anti-bacterial activity (MIC), strain EFM 15-4 ([7]; clinical isolate EFM 15-4): 2 µg/mL
Anti-bacterial activity (MIC), strain EFM 15-5 ([7]; clinical isolate EFM 15-5): 1 µg/mL
Anti-bacterial activity (MIC), strain EFM 15-6 ([7]; clinical isolate EFM 15-6): 2 µg/mL
Anti-bacterial activity (MIC), strain MSSE 15-3 ([8]; clinical isolate MSSE 15-3): 0.125 µg/mL
Anti-bacterial activity (MIC), strain MSSE 15-4 ([8]; clinical isolate MSSE 15-4): 0.125 µg/mL
Anti-bacterial activity (MIC), strain MSSE 15-5 ([8]; clinical isolate MSSE 15-5): 0.06 µg/mL
Anti-bacterial activity (MIC), strain MSSE 15-6 ([8]; clinical isolate MSSE 15-6): 0.06 µg/mL
Anti-bacterial activity (MIC), strain BCA 14-1 ([9]; clinical isolate BCA 14-1): 2 µg/mL
Anti-bacterial activity (MIC), strain BCA 14-4 ([9]; clinical isolate BCA 14-4): 2 µg/mL
Anti-bacterial activity (MIC), strain BCA 14-5 ([9]; clinical isolate BCA 14-5): 0.5 µg/mL
Anti-bacterial activity (MIC), strain BCA 14-6 ([9]; clinical isolate BCA 14-6): 1 µg/mL
Anti-bacterial activity (MIC), strain BCA 14-7 ([9]; clinical isolate BCA 14-7): 0.5 µg/mL
Anti-bacterial activity (MIC), strain BCA 14-8 ([9]; clinical isolate BCA 14-8): 1 µg/mL
Anti-bacterial activity (MIC), strain BCA 14-10 ([9]; clinical isolate BCA 14-10): 0.5 µg/mL
Anti-bacterial activity (MIC), strain SPN 16-2 ([10]; clinical isolate SPN 16-2): 8 µg/mL
Anti-bacterial activity (MIC), strain SPN 16-4 ([10]; clinical isolate SPN 16-4): 0.5 µg/mL
Anti-bacterial activity (MIC), strain MRSE 15-1 ([11]; clinical isolate MRSE 15-1): 0.06 µg/mL
Anti-bacterial activity (MIC), strain MRSE 15-2 ([11]; clinical isolate MRSE 15-2): 0.25 µg/mL
Anti-bacterial activity (MIC), strain MRSE 15-3 ([11]; clinical isolate MRSE 15-3): 0.25 µg/mL
Anti-bacterial activity (MIC), strain MRSE 15-7 ([11]; clinical isolate MRSE 15-7): 0.25 µg/mL
Anti-bacterial activity (MIC), strain MSSA 15-3 ([12]; clinical isolate MSSA 15-3): 0.25 µg/mL
Anti-bacterial activity (MIC), strain MSSA 15-4 ([12]; clinical isolate MSSA 15-4): 0.125 µg/mL
Anti-bacterial activity (MIC), strain MSSA 15-5 ([12]; clinical isolate MSSA 15-5): 0.06 µg/mL
Anti-bacterial activity (MIC), strain MSSA 15-6 ([12]; clinical isolate MSSA 15-6): 0.5 µg/mL
Anti-bacterial activity (MIC), strain MRSA 15-1 ([13]; clinical isolate MRSA 15-1): 0.25 µg/mL
Anti-bacterial activity (MIC), strain MRSA 15-2 ([13]; clinical isolate MRSA 15-2): 1 µg/mL
Anti-bacterial activity (MIC), strain MRSA 15-3 ([13]; clinical isolate MRSA 15-3): 0.2 µg/mL
Anti-bacterial activity (MIC), strain MRSA 15-4 ([13]; clinical isolate MRSA 15-4): 0.5 µg/mL
